Assay [1] deals with T1, Endoribonuclease toxin MazF (Escherichia coli K-12, UniProt P0AE70).
T1 sequence (P0AE70 whole entry): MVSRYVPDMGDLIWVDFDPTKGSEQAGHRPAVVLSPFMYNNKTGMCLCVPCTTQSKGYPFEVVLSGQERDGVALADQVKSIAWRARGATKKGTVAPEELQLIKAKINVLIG
Put plainly: substrate-only fluorescence increase artefacts – biochemical, single-stranded RNase substrate, counter-screen for MazEF activator project, dose response (AID 588502). The assay is classed as functional.

Assay [2] deals with T2, RNA-binding protein pos-1 (Caenorhabditis elegans, UniProt G5EF15).
T2 sequence (G5EF15 whole entry): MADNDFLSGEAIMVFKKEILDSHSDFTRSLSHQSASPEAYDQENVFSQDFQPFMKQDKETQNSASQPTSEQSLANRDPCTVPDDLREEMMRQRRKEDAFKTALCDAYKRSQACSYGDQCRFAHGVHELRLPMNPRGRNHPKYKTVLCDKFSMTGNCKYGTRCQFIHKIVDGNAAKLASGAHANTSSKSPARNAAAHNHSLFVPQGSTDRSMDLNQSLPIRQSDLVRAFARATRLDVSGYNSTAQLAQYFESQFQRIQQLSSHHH
Put plainly: disruptors of C. elegans POS-1 RNA interaction – biochemical, fluorescence polarization, dose response (AID 1964).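 Further: purified POS-1 fused to maltose binding protein made in E. coli; potency of compounds blocking POS-1 binding to fluorescent RNA.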 A general note: Polarisation of emitted light reports the rotation of a fluorescent probe.

For assay [3], the target named is T3, Zinc finger protein mex-5 (Caenorhabditis elegans, UniProt Q9XUB2).
T3 sequence (Q9XUB2 whole entry): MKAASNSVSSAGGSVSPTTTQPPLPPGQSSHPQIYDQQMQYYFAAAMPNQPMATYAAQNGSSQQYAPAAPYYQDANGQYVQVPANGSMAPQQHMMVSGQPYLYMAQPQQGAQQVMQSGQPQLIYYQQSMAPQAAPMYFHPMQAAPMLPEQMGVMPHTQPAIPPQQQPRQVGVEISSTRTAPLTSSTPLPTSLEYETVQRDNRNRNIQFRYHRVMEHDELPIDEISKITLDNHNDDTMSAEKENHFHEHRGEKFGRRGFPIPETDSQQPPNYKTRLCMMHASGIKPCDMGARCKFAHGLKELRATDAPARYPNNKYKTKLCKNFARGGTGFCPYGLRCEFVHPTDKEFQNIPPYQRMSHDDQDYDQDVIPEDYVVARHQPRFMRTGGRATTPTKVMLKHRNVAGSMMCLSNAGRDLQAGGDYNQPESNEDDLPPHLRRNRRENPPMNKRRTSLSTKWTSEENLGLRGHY
Kind of assay: potency of MEX-5 RNA-binding blockers – biochemical, C. elegans, fluorescence polarization, dose response (AID 1960).

The target in assay [4] is T1, Endoribonuclease toxin MazF. Kind of assay: activation of MazEF endoribonuclease cleavage – biochemical, fluorescence, single-stranded RNA substrate, uHTS hits, dose response (AID 588481). It is filed as functional.
In assay [5] the target is Arf-GAP with SH3 domain, ANK repeat and PH domain-containing protein 1 (Homo sapiens, UniProt Q9ULH1). It is filed as functional.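 Further: biochemical fluorescence polarization dose–response screen measuring inhibition of ASAP1; ASAP1 GAP domain stimulating GTP hydrolysis by truncated human ARF1.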
The target of another assay is T4, Cytochrome P450 1A2 (Homo sapiens, UniProt P05177).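 Further: PubChem cytochrome P450 panel assay, CYP1A2 panel member.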
T4 sequence (P05177 whole entry): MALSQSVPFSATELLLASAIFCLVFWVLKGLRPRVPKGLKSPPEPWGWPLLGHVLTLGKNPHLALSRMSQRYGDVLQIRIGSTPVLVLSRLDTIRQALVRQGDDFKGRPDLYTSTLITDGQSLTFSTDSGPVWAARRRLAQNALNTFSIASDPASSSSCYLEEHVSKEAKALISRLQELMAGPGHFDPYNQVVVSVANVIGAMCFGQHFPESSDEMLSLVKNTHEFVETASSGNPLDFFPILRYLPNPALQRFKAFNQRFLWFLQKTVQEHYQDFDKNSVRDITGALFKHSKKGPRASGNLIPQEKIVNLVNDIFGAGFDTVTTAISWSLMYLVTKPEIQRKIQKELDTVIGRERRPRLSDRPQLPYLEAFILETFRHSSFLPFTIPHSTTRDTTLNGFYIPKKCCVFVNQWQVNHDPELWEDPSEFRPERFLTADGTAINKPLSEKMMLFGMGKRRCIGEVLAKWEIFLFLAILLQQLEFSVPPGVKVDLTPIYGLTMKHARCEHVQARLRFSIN

The target of assay [6] is T5, Type-1 angiotensin II receptor (Homo sapiens, UniProt P30556).
T5 sequence (P30556 whole entry): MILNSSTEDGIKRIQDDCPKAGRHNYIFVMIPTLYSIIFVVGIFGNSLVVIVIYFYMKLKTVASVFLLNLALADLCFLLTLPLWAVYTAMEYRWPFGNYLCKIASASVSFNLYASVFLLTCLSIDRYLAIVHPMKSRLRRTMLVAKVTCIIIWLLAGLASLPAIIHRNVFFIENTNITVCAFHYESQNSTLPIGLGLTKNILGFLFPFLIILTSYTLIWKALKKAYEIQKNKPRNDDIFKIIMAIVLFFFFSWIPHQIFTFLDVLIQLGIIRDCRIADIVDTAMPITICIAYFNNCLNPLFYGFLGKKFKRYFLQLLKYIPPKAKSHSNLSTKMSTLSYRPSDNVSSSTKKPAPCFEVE
Put plainly: antagonism of angiotensin II type 1 receptor – cell-based, uHTS hits, selectivity assay for APJ receptor antagonist project, dose response (AID 463214).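 Further: antagonist potency against angiotensin II stimulated AT1 response.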 The assay is classed as functional.

The next assay concerns the target Beta-galactosidase (Escherichia coli, UniProt Q8VNN2). Kind of assay: PubChem AID 485352. The assay is classed as functional.
Assay [7] deals with FAD-linked sulfhydryl oxidase ALR (Homo sapiens, UniProt P55789). Kind of assay: ALR-catalysed DTT oxidation blockers – biochemical, H2O2 detection, luminescence, cherry-pick, dose response (AID 493248).
The target of assay [8] is T6, RNA-editing ligase 1, mitochondrial (Trypanosoma brucei brucei, UniProt P86926).
T6 sequence (P86926 whole entry): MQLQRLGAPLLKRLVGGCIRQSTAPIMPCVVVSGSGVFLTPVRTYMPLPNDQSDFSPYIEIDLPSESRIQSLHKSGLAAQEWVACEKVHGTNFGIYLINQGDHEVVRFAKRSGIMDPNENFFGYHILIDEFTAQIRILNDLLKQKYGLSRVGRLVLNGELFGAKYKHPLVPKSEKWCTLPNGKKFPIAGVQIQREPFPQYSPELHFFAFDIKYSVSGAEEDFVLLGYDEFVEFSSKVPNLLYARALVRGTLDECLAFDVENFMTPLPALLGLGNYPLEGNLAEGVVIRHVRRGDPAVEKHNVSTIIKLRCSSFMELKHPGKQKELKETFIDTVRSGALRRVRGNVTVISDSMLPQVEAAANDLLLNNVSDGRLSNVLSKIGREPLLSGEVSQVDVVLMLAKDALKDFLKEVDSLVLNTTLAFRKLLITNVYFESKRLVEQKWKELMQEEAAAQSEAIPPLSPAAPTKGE
Put plainly: inhibition of trypanosome RNA editing ligase – biochemical, fluorescence, Trypanosoma brucei, dose response (AID 1117295). The assay is classed as functional.

Another assay addresses T7, Aminopeptidase N (Plasmodium falciparum FcB1/Columbia, UniProt O96935).
T7 sequence (O96935 whole entry): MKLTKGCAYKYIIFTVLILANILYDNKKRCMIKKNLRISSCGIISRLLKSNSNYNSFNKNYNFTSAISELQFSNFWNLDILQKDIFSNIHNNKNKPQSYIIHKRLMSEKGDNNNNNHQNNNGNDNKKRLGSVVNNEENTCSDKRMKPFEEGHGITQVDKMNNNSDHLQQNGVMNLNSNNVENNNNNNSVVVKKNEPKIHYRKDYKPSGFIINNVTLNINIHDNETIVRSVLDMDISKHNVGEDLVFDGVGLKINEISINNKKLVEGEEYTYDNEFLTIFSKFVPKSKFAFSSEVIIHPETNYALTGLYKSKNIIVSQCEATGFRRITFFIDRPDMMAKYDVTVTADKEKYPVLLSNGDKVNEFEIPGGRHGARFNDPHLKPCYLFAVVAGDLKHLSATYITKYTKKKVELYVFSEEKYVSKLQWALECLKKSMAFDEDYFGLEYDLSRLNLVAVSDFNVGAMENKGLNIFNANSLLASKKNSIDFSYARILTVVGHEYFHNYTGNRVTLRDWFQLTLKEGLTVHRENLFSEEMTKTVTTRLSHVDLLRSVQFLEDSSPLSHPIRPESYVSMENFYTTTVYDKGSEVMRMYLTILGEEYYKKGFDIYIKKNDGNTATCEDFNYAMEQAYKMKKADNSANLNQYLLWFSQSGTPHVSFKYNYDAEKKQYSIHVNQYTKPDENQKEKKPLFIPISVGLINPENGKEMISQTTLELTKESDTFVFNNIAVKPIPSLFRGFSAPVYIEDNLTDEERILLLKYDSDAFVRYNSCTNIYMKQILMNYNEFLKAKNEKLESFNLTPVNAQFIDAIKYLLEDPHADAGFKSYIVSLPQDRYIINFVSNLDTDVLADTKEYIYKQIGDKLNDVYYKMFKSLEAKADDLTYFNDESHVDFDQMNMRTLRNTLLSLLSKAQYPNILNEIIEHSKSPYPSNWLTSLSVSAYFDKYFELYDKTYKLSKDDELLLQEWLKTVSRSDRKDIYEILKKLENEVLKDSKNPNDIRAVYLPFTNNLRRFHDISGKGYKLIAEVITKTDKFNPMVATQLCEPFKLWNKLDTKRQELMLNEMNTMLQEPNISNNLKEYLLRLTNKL
Kind of assay: malaria alanyl aminopeptidase activity blockers – biochemical, fluorogenic H-Leu-NHMec substrate, 1536-well (AID 1445). Set-up: species or system Plasmodium falciparum 3D7, 3D7.

In the next assay the target is T8, Caspase-6 (Homo sapiens, UniProt P55212).
T8 sequence (P55212 whole entry): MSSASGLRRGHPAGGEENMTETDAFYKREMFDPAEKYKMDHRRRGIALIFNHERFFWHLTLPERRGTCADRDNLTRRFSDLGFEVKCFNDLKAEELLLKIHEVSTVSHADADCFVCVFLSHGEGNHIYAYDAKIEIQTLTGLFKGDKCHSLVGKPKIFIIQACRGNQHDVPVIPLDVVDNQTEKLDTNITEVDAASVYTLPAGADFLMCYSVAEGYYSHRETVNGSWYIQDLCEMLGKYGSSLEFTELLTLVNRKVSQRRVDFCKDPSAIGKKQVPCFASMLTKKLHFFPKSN
Put plainly: inhibition of CASP6 peptide cleavage – biochemical, VEID-R110 fluorescence, cherry-pick, dose response (AID 720632).

The target of assay [9] is Dual specificity tyrosine-phosphorylation-regulated kinase 1A (Rattus norvegicus, UniProt Q63470). It is filed as biochemical, Homo sapiens.

Active and inactive are the calls of the source.

As usually defined, the EC50 is the midpoint of the concentration-response curve. For orientation: IC50 means the concentration that gives 50% inhibition. In general, AC50 refers to the concentration at which the activity in the assay is half-maximal.

Beta-galactosidase, sequence (Q8VNN2 whole entry): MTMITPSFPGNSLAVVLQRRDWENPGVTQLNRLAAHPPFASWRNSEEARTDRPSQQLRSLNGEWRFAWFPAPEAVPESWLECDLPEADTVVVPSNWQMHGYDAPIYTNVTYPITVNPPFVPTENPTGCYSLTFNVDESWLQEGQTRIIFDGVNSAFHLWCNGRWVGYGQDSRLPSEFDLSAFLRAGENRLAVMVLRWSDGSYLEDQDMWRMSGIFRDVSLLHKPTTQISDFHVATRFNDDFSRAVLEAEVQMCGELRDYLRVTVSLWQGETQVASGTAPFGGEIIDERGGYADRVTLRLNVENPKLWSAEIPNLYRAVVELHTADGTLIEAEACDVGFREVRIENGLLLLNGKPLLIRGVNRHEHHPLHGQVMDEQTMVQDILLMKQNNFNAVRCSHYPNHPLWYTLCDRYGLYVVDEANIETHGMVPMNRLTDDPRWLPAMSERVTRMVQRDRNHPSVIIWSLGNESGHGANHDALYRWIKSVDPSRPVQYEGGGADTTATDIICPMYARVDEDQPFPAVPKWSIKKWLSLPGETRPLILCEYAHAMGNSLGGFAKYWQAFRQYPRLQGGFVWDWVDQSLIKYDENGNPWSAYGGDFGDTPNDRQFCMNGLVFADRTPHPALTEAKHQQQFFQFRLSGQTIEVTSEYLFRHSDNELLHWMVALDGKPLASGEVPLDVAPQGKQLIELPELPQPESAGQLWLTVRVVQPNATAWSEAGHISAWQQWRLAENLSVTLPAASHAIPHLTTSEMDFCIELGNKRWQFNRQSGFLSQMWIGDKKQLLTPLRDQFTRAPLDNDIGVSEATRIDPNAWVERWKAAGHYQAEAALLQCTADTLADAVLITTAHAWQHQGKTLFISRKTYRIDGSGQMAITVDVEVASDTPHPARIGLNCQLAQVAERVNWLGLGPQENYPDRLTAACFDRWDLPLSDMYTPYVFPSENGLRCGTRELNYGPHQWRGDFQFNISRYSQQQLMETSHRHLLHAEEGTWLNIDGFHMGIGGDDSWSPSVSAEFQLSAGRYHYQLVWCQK
FAD-linked sulfhydryl oxidase ALR, sequence (P55789 whole entry): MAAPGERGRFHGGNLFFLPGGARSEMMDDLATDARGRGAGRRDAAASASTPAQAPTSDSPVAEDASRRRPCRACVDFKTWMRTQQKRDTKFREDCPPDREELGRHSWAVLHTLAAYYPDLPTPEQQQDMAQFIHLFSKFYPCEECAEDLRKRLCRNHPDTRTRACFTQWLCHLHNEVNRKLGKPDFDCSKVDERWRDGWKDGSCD
Arf-GAP with SH3 domain, ANK repeat and PH domain-containing protein 1, sequence (Q9ULH1 whole entry, the tested form may be a part): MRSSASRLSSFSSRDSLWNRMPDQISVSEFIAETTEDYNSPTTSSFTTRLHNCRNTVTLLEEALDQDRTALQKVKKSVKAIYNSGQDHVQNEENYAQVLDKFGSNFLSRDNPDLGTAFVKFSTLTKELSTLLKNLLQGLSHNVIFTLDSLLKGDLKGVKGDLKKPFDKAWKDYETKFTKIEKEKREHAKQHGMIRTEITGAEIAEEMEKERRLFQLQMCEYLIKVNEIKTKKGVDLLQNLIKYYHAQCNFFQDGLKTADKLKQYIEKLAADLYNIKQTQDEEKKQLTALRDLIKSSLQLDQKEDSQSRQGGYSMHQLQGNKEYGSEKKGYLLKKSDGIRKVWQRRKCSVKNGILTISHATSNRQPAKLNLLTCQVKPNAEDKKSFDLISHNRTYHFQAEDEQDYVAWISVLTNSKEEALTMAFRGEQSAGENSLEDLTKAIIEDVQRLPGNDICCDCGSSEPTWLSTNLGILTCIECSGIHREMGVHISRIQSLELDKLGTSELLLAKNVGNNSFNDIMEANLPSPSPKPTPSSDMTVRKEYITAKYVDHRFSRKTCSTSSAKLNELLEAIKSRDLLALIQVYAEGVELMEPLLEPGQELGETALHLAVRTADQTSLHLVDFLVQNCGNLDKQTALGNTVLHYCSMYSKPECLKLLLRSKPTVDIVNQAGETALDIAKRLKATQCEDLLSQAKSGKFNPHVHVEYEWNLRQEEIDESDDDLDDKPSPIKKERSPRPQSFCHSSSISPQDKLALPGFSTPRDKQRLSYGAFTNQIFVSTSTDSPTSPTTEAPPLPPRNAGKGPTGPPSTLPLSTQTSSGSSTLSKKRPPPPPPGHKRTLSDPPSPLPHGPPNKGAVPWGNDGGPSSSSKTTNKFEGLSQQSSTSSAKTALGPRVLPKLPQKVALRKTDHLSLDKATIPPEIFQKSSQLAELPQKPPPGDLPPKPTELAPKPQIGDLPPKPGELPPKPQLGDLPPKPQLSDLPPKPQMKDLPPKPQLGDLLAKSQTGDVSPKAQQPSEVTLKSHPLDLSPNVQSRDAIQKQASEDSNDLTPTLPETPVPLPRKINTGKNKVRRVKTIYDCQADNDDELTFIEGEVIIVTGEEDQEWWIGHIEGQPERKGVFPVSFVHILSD

Turning to `O=c1oc2ccc3ccccc3c2cc1-c1nc2ccccc2o1`, the EC50 in assay [1] was > 99 µM (inactive); in [2] it was > 300 µM (not active); in assay [3] it was > 300 µM (inconclusive); in assay [4] it was > 99 µM (inactive).
As for `Cc1ccc(NC(=O)c2ccc(NCC3CCCO3)c([N+](=O)[O-])c2)cc1Cl` (stereo unspecified), the IC50 in [5] was 5.2 µM (active). Moreover, the EC50 in assay [1] and in [4] was > 99 µM (inactive) in each case. At Cytochrome P450 1A2, the AC50 is 14.1 µM (inconclusive).
Consider `CCOC(=O)C1=C2NC(=O)c3ccccc3N2C(=O)C1`, for which the EC50 in assay [2] was 89 µM (active); in [3], 38.8 µM (active); at Beta-galactosidase, > 40 µM (inactive). Moreover, in assay [6], the IC50 is 9.25 µM (active).
In the case of `O=[N+]([O-])c1ccc(C=CC=Cc2ccccc2)cc1`, the EC50 in [1] and in [4] was > 99 µM (inactive) each time.
Turning to `COc1c(O)cc2oc(-c3ccc(O)c(O)c3)cc(=O)c2c1O` [EUPAFOLIN], the figures for the AC50 (in assay [7]; on Caspase-6; in [9]) were 230 nM (active), 29.3 µM (active) and 12.7 µM (active), respectively. Moreover, the IC50 in [8] is > 96.6 µM (inactive); at Aminopeptidase N, 15.6 µM (active). Moreover, the EC50 is 93.1 µM (active) in [2] and 36 µM (active) in [3].

Values taken from ChEMBL document CHEMBL1201862, “PubChem BioAssay data set” (2004).
